Literature values in PMC12776573, “Mechanism of Self-Assembly of the Gonadropin Releasing Hormone Antagonist Teverelix into Amyloid Fibrils” (Molecular Pharmaceutics, 2025).
Square brackets hold non-standard residues; d marks the D form. Peptide text beside a SMILES is read from it. dPhe(4-Cl) = N[C@H](Cc1ccc(Cl)cc1)C(=O)O; d2Nal = N[C@H](Cc1ccc2ccccc2c1)C(=O)O; d(hCit) = NC(=O)NCCCC[C@@H](N)C(=O)O; Lys(iPr) = CC(C)NCCCC[C@H](N)C(=O)O; d3Pal = N[C@H](Cc1cccnc1)C(=O)O

Details: side chain of Tv thought to be deprotonated on fibril formation; not measured here, no reference given
Excerpt: Calculations establish that a single deprotonation event occurs (see the footnote to Table S1). Considering the pK a of all possible protonation sites in Tv, we think that the pyridine side c ...

CC(=O)N[C@H](Cc1ccc2ccccc2c1)C(=O)N[C@H](Cc1ccc(Cl)cc1)C(=O)N[C@H](Cc1cccnc1)C(=O)N[C@@H](CO)C(=O)N[C@@H](Cc1ccc(O)cc1)C(=O)N[C@H](CCCCNC(N)=O)C(=O)N[C@@H](CC(C)C)C(=O)N[C@@H](CCCCNC(C)C)C(=O)N1CCC[C@H]1C(=O)N[C@H](C)C(N)=O [Tv, Ac-D-Nal(2)-D-Phe(4Cl)-D-Pal(3)-Ser-Tyr-D-Hcit-Leu-Lys(iPr)-Pro-D-Ala-NH2] (Ac-[d2Nal][dPhe(4-Cl)][d3Pal]SY[d(hCit)]L[Lys(iPr)]P[dA]-NH2)
pKa of the pyridine side chain: 5.22
